Reference: US7071231B2, “Naphthalene ureas as glucose uptake enhancers” (Telik, Inc., priority 1999, dated 2006)
Counter-ions that a name gives are not always drawn. Like-named read-outs stand apart in the source and are kept apart here.

Tests used:
[1] = system: Salmonella typhimurium strains, TA100, TA1535, and TA1537; experiment: Ames test, Salmonella typhimurium strains; conditions: 50 to 5000 μg/plate, without and with induced rat liver S-9 plus cofactors
3T3 L1 fibroblasts = experiment: Glucose transport activity assay (14C-2-deoxy-D-glucose uptake); format: cell-based
Summary of the method: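 Differentiated 3T3 L1 adipocytes (IBMX/dexamethasone/insulin induction), serum-starved overnight, preincubated 30 min at 37 °C with compound ± insulin in pH 7.4 salt buffer, then 30 min with 5 μCi/ml 14C-2-deoxy-D-glucose. Lysate radioactivity counted; EC = concentration raising uptake above 150% of vehicle control.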

[2] = system: Escherichia coli strain WP2uvrA; experiment: Ames test, Escherichia coli strain; conditions: 50 to 5000 μg/plate, without and with induced rat liver S-9 plus cofactors
[3] = molecular target: T1, β-kinase domain of the human insulin receptor (CKD) (Homo sapiens, UniProt P06213); experiment: 32P-cytoplasmic kinase domain (CKD) autophosphorylation assay; format: biochemical; conditions: phosphorylation of CKD expressed as % of the vehicle level; 10 minutes at room temperature; compound concentration not given
T1 construct: The complete β-kinase domain of the human insulin receptor (CKD) was expressed in, and purified from, baculovirus; made in house
Protocol: ^32P-cytoplasmic Kinase Domain (CKD) Autophosphorylation Assay The insulin signaling pathway is activated through stimulation of the insulin receptor. A major component of this activation is the phosphorylation of a specific portion of the receptor called the β-kinase domain. The complete β-kinase domain of the human insulin receptor (CKD) was expressed in, and purified from, baculovirus. CKD (4.0μg/ml), in a solution of 29 mM HEPES (pH 7.6), 0.05% Triton X-100, 10 mM MgCl2, 2 mM MnCl2 (50 μl final volume), was combined with 50 μM ATP, and 5 μCi ^32P-ATP (3000Ci/mmol.). A test compound, or the vehicle (dimethyl sulfoxide (DMSO)) was added to a final DMSO concentration of 1%. The mixture was incubated for 10 minutes at room temperature. The reaction was terminated by the addition of 10 μl 200 mM EDTA. A 30 μl volume was removed, mixed with 5 μl of 6× Laemmeli sodium dodecyl sulfate (SDS) treatment buffer, and heated to 94° C. for 5 minutes. A 20 μl aliquot was then run an SDS-PAGE gel. The radioactivity incorporated into the CKD band was quantified by phosphorimaging of the gel, or scintillation counting of the excised bands. The potency of a compound for increasing phosphorylation was expressed as % of the vehicle level.

human insulin receptor = molecular target: T2, human insulin receptor (Homo sapiens, UniProt P06213); experiment: Whole-cell phosphorylation assay (3T3HIR cells); format: cell-based; conditions: 15 min, anti-phosphotyrosine Western, various concentrations (FIG. 2)
T2 construct: expressed in transfected cells; host or cells: NIH 3T3 (3T3HIR)
Protocol: Whole-cell Phosphorylation Assay:
The initial step in insulin signaling is phosphorylation of the insulin receptor in response to insulin binding. NIH 3T3 cells overexpressing human insulin receptor (3T3HIR) were grown for 2 days at a density of 2×10^5/ml cells in 6 well culture dishes in DMEM with 10% FBS and L-glutamine. Prior to the experiment the cells were serum-starved overnight with DMEM with 0.1% BSA. The following morning, the cells were washed with PBS and the medium was replaced with 150 mM NaCl, 1.7 mM KCl, 0.9 mM CaCl2, K2HPO4 (pH 7.4), to which were added either the experimental compounds, or their vehicle (DMSO). Insulin or its vehicle (0.01% BSA) was diluted in the assay buffer (containing test compound or vehicle, respectively) to a final concentration of 2.5 nM. After incubating for 15 min, the cells were washed with cold PBS twice and lysed in 50 mM Tris.HCl, pH 7.4 150 mM NaCl, 0.25% sodium deoxycholate, 1% NP-40, 1 mM EGTA, 1 mM PMSF, 1 mM Na3VO4, 1 mM NaF, 1 ug/ml each of Aprotinin, Leupeptin and Pepstatin. The cell lysates were clarified by centrifugation at 12000 rpm, and the supernatants were estimated for protein concentration. Total cell lysate ([…]) was boiled with 2× SDS-PAGE sample buffer for 3 min and loaded into 7.5% SDS-PAGE along with Amersham rainbow marker protein as a molecular weight standard. […]

STZ/HFD rat = experiment: Blood glucose determination in the STZ/HFD rat model of Type 2 diabetes; format: in vivo; conditions: STZ/HFD rat model, oral compound administration (30 mg/kg)
From the text: Blood Glucose Determination in the STZ/HFD Rat Model of Type 2 Diabetes
Representative compounds were also profiled in genetically normal rats given a high-fat diet followed by treatment with a low dose of streptozotocin (STZ/HFD). This treatment regimen recreates both the insulin resistance and the hyperglycemia seen in human Type 2 diabetes. Male CD rats (Jackson Labs, Bar Harbor Me.) were maintained according to NIH guidelines, housed two per cage, and fed either standard lab chow (Tekland Laboratory Diets, James Grain, San Jose, Calif.) or the same chow supplemented with chocolate bars, cookies, and potato chips such that their final diet contained 30% fat by weight (high-fat diet; HFD). After two weeks of this diet, the animals were given an injection of freshly-prepared streptozotocin (35 mg/kg, i.p.) and continued on the HFD. Animals that achieved glucose levels of 190 to 380 mg/dl were used in this study. At the end of the 12-hour light/dark cycle, and just prior to the experiment, the animals were moved to new cages with no food available until 4 hours after treatment. The compound or vehicle (PBS) was given p.o. by gavage, and blood was sampled by approved IACUC protocol using tail cap method. Glucose was determined using the Glucometer Elite (Bayer, Elkhart, Ind.).
The reduction was maximal (20%) 4 hours after the administration of Compound 15.

3T3 L1 adipocytes = experiment: Effect of Wortmannin and Cytochalasin on glucose uptake; format: cell-based; conditions: Cytochalasin B 10 μM; stimulation by Compound 15 alone or Compound 15 plus 5.6 nM insulin
Protocol: Effect of Wortmannin and Cytochalasin on Glucose Uptake:
The glucose transport pathway stimulated by insulin involves activation of PI3 Kinase. Wortmannin is a selective inhibitor of PI3 Kinase and inhibits insulin-stimulated glucose transport. 3T3 L1 adipocytes were pretreated with 100 nM Wortmannin and stimulated with the compounds in the presence or absence of insulin. […] Insulin-stimulated glucose transport is mediated by glucose transporter proteins. Cytochalasin B is an inhibitor of glucose transporters and inhibits insulin-stimulated glucose uptake.

[4] = Mus musculus, EC (effective concentration) for increase in glucose transport, 14C-2-deoxy-D-glucose, 3T3 L1 cells, read-out: Concentration (μM) to reach >150% activity of vehicle control

T1 sequence (P06213 980-1382 limits assumed): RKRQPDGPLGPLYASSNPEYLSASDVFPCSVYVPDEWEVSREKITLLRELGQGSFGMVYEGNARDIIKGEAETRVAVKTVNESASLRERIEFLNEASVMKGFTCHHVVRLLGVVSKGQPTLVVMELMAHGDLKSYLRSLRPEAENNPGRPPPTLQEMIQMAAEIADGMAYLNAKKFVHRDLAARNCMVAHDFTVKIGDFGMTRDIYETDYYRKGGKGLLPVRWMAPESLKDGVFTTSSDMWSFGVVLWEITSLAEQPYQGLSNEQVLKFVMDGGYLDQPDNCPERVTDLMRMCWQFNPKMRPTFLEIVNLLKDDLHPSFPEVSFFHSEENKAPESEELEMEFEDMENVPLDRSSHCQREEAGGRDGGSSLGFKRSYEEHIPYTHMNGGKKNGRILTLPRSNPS
T2 sequence (P06213 763-1382 limits assumed): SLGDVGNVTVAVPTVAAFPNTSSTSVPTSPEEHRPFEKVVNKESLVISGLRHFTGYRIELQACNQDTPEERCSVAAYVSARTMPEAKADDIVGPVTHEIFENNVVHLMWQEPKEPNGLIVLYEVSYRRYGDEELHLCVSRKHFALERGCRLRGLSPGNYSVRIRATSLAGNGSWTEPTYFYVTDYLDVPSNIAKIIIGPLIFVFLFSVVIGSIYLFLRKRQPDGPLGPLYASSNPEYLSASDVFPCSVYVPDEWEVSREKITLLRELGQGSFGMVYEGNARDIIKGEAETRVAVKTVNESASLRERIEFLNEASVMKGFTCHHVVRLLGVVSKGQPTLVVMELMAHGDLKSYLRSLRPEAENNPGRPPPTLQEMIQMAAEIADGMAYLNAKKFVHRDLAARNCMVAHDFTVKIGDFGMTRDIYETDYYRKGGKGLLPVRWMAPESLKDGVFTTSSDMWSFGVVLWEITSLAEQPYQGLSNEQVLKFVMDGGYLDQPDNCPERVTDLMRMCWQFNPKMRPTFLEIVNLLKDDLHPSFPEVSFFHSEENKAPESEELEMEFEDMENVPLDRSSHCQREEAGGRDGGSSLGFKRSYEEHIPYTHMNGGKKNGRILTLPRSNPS
T2 sequence (P06213 28-758 partner limits assumed): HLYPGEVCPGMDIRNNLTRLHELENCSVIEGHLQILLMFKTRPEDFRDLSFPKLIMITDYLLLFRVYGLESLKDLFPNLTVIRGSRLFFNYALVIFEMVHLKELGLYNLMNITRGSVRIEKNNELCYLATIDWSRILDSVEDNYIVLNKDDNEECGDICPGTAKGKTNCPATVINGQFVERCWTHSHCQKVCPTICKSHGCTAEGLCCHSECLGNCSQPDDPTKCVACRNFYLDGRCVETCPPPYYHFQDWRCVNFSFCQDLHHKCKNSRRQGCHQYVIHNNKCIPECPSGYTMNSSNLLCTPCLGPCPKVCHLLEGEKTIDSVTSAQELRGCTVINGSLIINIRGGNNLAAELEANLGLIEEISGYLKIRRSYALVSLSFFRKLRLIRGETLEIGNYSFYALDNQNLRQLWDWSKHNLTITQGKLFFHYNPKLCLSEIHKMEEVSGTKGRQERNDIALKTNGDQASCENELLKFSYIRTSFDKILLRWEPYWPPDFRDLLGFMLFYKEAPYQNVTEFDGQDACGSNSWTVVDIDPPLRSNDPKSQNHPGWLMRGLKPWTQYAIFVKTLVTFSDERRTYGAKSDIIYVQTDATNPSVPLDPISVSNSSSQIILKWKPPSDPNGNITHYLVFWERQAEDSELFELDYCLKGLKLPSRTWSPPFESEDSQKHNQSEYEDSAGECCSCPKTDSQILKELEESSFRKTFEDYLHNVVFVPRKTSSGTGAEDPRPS

Compound	% Activity vs. Control [3] [%]	% Reduction in Blood Glucose (maximal reduction) (STZ/HFD rat) [%]	Time (h) at which maximal reduction in blood glucose occurred (STZ/HFD rat) [h]	EC (150% of vehicle control) (3T3 L1 fibroblasts; [4]) [µM]	also measured
O=C(Nc1ccc2c(O)cc(S(=O)(=O)O)cc2c1)Nc1ccc2c(O)cc(S(=O)(=O)O)cc2c1 [Compound 4, 4-hydroxy-7-{[(5-hydroxy-7-sulfo(2-naphthyl))amino]carbonylamino}naphthalene-2-sulfonic acid disodium salt]	152				mutagenicity (revertant colonies), histidine operon [1]: negative; EC (150% of vehicle control) (3T3 L1 fibroblasts; Mus musculus, 3T3-L1, read-out: Concentration (μM) to reach >150% activity of vehicle control): 32 µM; mutagenicity (revertant colonies), tryptophan operon [2]: negative
O=C(Nc1ccc2ccc(S(=O)(=O)Nc3cccc(S(=O)(=O)O)c3)cc2c1)Nc1ccc2ccc(S(=O)(=O)Nc3cccc(S(=O)(=O)O)c3)cc2c1 [Compound 13, 3-{[(7-{[N-(7-{[(3-sulfophenyl)amino]sulfonyl}-2-naphthyl)carbamoyl]amino}-2-naphthyl)sulfonyl]amino}benzenesulfonic acid disodium salt]	135	20	1		glucose uptake of cells (3T3 L1 fibroblasts; in the presence or absence of insulin (FIG. 3)): increase in glucose uptake of cells; autophosphorylation of the insulin receptor in whole cells (human insulin receptor): increase of autophosphorylation
O=C(Nc1ccc2c(O)cc(S(=O)(=O)Nc3ccc(C(=O)O)cc3)cc2c1)Nc1ccc2c(O)cc(S(=O)(=O)Nc3ccc(C(=O)O)cc3)cc2c1 [Compound 29, 4-{[(7-{[N-(7-{[(4-carboxyphenyl)amino]sulfonyl}-5-hydroxy(2-naphthyl))carbamoyl]amino}-4-hydroxy-2-naphthyl)sulfonyl]amino}benzoic acid]	106	18	6	3.2	
COC(=O)c1cccc(NS(=O)(=O)c2cc(O)c3ccc(NC(=O)Nc4ccc5c(O)cc(S(=O)(=O)Nc6cccc(C(=O)OC)c6)cc5c4)cc3c2)c1 [Compound 41, methyl 3-({[4-hydroxy-7-({[5-hydroxy-7-({[3-(methoxycarbonyl)phenyl]amino}sulfonyl)(2-naphthyl)]amino}carbonylamino)-2-naphthyl]sulfonyl}amino)benzoate]	109	20	4	32	
O=C(Nc1ccc2ccc(S(=O)(=O)Nc3ccc(Cl)c(C(=O)O)c3)cc2c1)Nc1ccc2ccc(S(=O)(=O)Nc3ccc(Cl)c(C(=O)O)c3)cc2c1 [Compound 48, 5-{[(7-{[N-(7-{[(3-carboxy-4-chlorophenyl)amino]sulfonyl}(2-naphthyl))carbamoyl]amino}(2-naphthyl))sulfonyl]amino}-2-chlorobenzoic acid]		24	2	3.2	
O=C(Nc1ccc2c(O)cc(S(=O)(=O)Nc3ccc(Cl)c(S(=O)(=O)O)c3)cc2c1)Nc1ccc2c(O)cc(S(=O)(=O)Nc3ccc(Cl)c(S(=O)(=O)O)c3)cc2c1 [Compound 93, 2-chloro-5-{[(7-{[(7-{[(4-chloro-3-sulfophenyl)amino]sulfonyl}-5-hydroxy(2-naphthyl))amino]carbonylamino}-4-hydroxy(2-naphthyl))sulfonyl]amino}benzenesulfonic acid]		25	4	3.2	
CCOC(=O)COc1cc(S(=O)(=O)O)cc2cc(NC(=O)Nc3ccc4c(O)cc(S(=O)(=O)O)cc4c3)ccc12.N.N [Compound 94, 7-[({5-[(ethoxycarbonyl)methoxy]-7-sulfo(2-naphthyl)}amino)carbonylamino]-4-hydroxy-naphthalene-2-sulfonic acid, diammonium salt]	279				EC (150% of vehicle control) (3T3 L1 fibroblasts; EC (effective concentration) for increase in glucose transport, 14C-2-deoxy-D-glucose, 3T3 L1 cells, read-out: Concentration (μM) to reach >150% activity of vehicle control): 32 µM
COc1cc(S(=O)(=O)O)cc2cc(NC(=O)Nc3ccc4c(O)cc(S(=O)(=O)O)cc4c3)ccc12 [Compound 98, 4-hydroxy-7-{[(5-methoxy-7-sulfo(2-naphthyl))amino]carbonylamino}naphthalene-2-sulfonic acid]	166			32	
COc1cc(S(=O)(=O)O)cc2cc(NC(=O)Nc3ccc4c(OC)cc(S(=O)(=O)O)cc4c3)ccc12 [Compound 99, 4-methoxy-7-{[(5-methoxy-7-sulfo(2-naphthyl))amino]carbonylamino}naphthalene-2-sulfonic acid]	110			32	
C=C1[C@@H](C)[C@H]2[C@H](Cc3ccccc3)NC(=O)[C@]23OC(=O)/C=C/[C@H](O)CCC[C@@H](C)C/C=C/[C@H]3[C@@H]1O [Cytochalasin B]					effect on stimulation of glucose transport (3T3 L1 adipocytes): inhibited the stimulation of glucose transport
